Results published in the supplement of paper PMC11451515.

How the values were obtained:
Settings in all cases: 48 h
SEM cells [1] = test: cell viability relative to DMSO control; higher = less cytotoxic
In short: (§1)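 NOMO1 or SEM cells were plated at 500 cells/well and P12-Ichikawa cells at 1000 cells/well in 1536-well plates (5 μl), after each leukemia line had been adapted for at least four passages in each medium. Pin dosing delivered library compounds in DMSO at 11 threefold concentrations, 47 μM to 0.79 nM. CellTiter-Glo One luminescence was read after 48 h at 37°C. Viability is reported as a per-plate percentage of DMSO wells, with cell-free wells as background.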

NOMO1 [2] = test: as above
In short: as §1

P12-Ichikawa [3] = test: as above
In short: as §1

SEM cells [4] = test: AUC of viability dose-response curve (% viability x log10 dose units); higher = less sensitive
In short: (§2)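 Leukemia cells adapted to each medium were seeded in 1536-well plates (500 or 1000 cells/well). They were dosed with library compounds in DMSO at 11 threefold doses, 47 μM to 0.79 nM, for 48 h at 37°C. CellTiter-Glo One luminescence was normalised per plate to DMSO and cell-free wells. Area under the curve was integrated by trapezoidal rule over log10 doses on a four-parameter log-logistic fit; curves exceeding full viability were scaled and curves failing quality control removed.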

NOMO1 [5] = test: as above
In short: as §2

P12-Ichikawa [6] = test: as above
In short: as §2

Cc1ccc(-c2cc(C(F)(F)F)nn2-c2ccc([S+](N)(=O)[O-])cc2)cc1
cell viability [%]
Settings | NOMO1 [2] | P12-Ichikawa [3] | SEM cells [1]
HPLM + 10% dialyzed FBS, 0.000781 µM | – | 86.8 | 112
HPLM + 10% dialyzed FBS, 0.00234 µM | – | 125 | 113
HPLM + 10% dialyzed FBS, 0.00702 µM | – | 118 | 106
HPLM + 10% dialyzed FBS, 0.0211 µM | – | 118 | 125
HPLM + 10% dialyzed FBS, 0.0632 µM | – | 120 | 119
HPLM + 10% dialyzed FBS, 0.19 µM | – | 110 | 126
HPLM + 10% dialyzed FBS, 0.569 µM | – | 128 | 121
HPLM + 10% dialyzed FBS, 1.71 µM | – | 117 | 122
HPLM + 10% dialyzed FBS, 5.12 µM | – | 115 | 106
HPLM + 10% dialyzed FBS, 15.4 µM | – | 112 | 109
HPLM + 10% dialyzed FBS, 46.1 µM | – | 105 | 91.3
RPMI 5 mM glucose + 10% FBS, 0.000781 µM | 115 | – | 84.8
RPMI 5 mM glucose + 10% FBS, 0.00234 µM | 122 | – | 109
RPMI 5 mM glucose + 10% FBS, 0.00702 µM | 110 | – | 110
RPMI 5 mM glucose + 10% FBS, 0.0211 µM | 126 | – | 110
RPMI 5 mM glucose + 10% FBS, 0.0632 µM | 126 | – | 126
RPMI 5 mM glucose + 10% FBS, 0.19 µM | 114 | – | 122
RPMI 5 mM glucose + 10% FBS, 0.569 µM | 115 | – | 122
RPMI 5 mM glucose + 10% FBS, 1.71 µM | 112 | – | 102
RPMI 5 mM glucose + 10% FBS, 5.12 µM | 112 | – | 102
RPMI 5 mM glucose + 10% FBS, 15.4 µM | 128 | – | 105
RPMI 5 mM glucose + 10% FBS, 46.1 µM | 103 | – | 83.9
RPMI 5 mM glucose + 10% dialyzed FBS, 0.000781 µM | 121 | 111 | 120
RPMI 5 mM glucose + 10% dialyzed FBS, 0.00234 µM | 119 | 119 | 121
RPMI 5 mM glucose + 10% dialyzed FBS, 0.00702 µM | 121 | 122 | 126
RPMI 5 mM glucose + 10% dialyzed FBS, 0.0211 µM | 118 | 113 | 127
RPMI 5 mM glucose + 10% dialyzed FBS, 0.0632 µM | 107 | 115 | 120
RPMI 5 mM glucose + 10% dialyzed FBS, 0.19 µM | 110 | 123 | 123
RPMI 5 mM glucose + 10% dialyzed FBS, 0.569 µM | 117 | 123 | 120
RPMI 5 mM glucose + 10% dialyzed FBS, 1.71 µM | 121 | 122 | 111
RPMI 5 mM glucose + 10% dialyzed FBS, 5.12 µM | 104 | 121 | 117
RPMI 5 mM glucose + 10% dialyzed FBS, 15.4 µM | 109 | 105 | 140
RPMI 5 mM glucose + 10% dialyzed FBS, 46.1 µM | 92.7 | 102 | 87.4

AUC of viability dose-response curve
Settings | NOMO1 [5] | P12-Ichikawa [6] | SEM cells [4]
HPLM + 10% dialyzed FBS | 451 | 471 | 464
RPMI 5 mM glucose + 10% FBS | 468 | 463 | 460
RPMI 5 mM glucose + 10% dialyzed FBS | 463 | 468 | 470
